In patent publication US9694002B2, “Substituted benzamides and methods of use thereof” (GENENTECH, INC., priority 2013, dated 2017):
Structures can show the parent of a compound that is named as a salt.

Each molecule was assayed against NaV1.7 (Homo sapiens (Human), UniProt Q15858) (assay: Electrophysiological assay (EP), patch voltage clamp, NaV1.7). Settings: HEK-293 cells stably expressing human NaV1.7 with β1 subunit, whole-cell patch clamp, held at −60 mV (inactivated state).
Assay type: cell-based
Description: NaV1.7 and NaV1.5 cDNAs (NM_002977 and AG 137587; SCN5A, respectively) were stably expressed in HEK-293 cells.
Control sodium currents were measured in 0.5% DMSO.
Series resistance compensation was applied (60-80%).

NaV1.7, sequence (Q15858 other isoform, or with tags, fused parts or gaps): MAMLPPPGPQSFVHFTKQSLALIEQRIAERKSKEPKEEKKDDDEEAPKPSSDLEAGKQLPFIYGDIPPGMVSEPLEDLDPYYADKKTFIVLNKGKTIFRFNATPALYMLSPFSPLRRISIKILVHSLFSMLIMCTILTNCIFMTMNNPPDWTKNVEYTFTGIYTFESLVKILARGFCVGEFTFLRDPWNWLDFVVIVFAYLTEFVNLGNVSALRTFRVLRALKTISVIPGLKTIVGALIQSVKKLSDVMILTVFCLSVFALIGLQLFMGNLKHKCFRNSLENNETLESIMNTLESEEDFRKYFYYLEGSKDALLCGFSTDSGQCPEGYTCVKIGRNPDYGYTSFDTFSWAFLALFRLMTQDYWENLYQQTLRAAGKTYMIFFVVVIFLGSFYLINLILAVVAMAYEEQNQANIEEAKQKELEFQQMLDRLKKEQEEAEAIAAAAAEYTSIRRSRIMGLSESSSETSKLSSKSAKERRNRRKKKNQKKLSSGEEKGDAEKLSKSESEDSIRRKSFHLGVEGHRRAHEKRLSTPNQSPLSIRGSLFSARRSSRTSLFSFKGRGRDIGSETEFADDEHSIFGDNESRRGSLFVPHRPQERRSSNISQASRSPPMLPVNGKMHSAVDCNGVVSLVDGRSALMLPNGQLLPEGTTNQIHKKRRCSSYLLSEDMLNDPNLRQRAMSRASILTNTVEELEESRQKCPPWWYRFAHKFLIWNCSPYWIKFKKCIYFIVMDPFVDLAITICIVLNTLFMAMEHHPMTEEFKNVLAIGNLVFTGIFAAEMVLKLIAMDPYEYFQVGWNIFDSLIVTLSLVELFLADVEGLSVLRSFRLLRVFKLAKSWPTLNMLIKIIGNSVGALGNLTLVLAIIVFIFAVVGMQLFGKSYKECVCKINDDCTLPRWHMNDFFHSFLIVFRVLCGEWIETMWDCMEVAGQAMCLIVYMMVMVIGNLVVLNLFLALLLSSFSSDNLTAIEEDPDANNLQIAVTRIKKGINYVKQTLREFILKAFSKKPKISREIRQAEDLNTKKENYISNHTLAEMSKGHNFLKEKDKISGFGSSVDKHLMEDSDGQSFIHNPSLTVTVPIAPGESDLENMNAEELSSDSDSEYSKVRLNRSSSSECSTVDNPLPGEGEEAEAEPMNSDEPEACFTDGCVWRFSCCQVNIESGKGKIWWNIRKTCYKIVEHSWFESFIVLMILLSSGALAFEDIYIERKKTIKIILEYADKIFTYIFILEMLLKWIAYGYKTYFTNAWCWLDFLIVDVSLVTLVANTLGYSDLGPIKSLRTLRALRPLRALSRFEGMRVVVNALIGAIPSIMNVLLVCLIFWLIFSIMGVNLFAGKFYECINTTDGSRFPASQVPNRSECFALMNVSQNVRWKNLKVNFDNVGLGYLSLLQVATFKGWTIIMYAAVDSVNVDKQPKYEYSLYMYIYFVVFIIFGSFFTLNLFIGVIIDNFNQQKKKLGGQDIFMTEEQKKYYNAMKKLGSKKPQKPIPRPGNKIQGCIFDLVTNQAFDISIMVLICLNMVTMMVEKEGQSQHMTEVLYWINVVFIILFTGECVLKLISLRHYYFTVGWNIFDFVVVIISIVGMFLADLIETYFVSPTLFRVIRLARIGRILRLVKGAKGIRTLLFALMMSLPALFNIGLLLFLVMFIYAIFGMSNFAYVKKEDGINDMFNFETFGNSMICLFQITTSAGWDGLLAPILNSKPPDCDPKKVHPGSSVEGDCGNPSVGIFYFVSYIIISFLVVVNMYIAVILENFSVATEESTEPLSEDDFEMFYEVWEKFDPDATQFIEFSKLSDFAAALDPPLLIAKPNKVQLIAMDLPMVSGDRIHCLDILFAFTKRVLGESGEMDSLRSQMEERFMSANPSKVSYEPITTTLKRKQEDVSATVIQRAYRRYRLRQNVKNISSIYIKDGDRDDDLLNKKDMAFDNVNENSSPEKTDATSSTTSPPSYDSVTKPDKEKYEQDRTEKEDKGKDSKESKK
NaV1.7, sequence (Q07699 19-218 partner): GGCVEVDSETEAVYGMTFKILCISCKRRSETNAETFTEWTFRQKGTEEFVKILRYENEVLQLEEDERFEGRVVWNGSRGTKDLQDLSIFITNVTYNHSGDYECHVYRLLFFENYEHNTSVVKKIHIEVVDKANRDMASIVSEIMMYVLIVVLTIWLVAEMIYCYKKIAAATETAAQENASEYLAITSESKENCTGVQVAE

IC50 [nM]	Molecule
5.8	C[C@@H](c1cc(Cl)cc(Cl)c1)N1CCC(COc2cc(F)c(C(=O)NS(=O)(=O)C3CC3)cc2C2CC2)CC1 (single isomer, unassigned) [Example 270]

Each molecule was assayed against hNav1.7 (Homo sapiens (Human), UniProt Q15858) (assay: Ligand binding assay: tritiated sulfonamide binding to membranes from cells expressing hNav1.7 and the β1 subunit). Settings: not given.
hNav1.7, sequence (Q15858 whole entry): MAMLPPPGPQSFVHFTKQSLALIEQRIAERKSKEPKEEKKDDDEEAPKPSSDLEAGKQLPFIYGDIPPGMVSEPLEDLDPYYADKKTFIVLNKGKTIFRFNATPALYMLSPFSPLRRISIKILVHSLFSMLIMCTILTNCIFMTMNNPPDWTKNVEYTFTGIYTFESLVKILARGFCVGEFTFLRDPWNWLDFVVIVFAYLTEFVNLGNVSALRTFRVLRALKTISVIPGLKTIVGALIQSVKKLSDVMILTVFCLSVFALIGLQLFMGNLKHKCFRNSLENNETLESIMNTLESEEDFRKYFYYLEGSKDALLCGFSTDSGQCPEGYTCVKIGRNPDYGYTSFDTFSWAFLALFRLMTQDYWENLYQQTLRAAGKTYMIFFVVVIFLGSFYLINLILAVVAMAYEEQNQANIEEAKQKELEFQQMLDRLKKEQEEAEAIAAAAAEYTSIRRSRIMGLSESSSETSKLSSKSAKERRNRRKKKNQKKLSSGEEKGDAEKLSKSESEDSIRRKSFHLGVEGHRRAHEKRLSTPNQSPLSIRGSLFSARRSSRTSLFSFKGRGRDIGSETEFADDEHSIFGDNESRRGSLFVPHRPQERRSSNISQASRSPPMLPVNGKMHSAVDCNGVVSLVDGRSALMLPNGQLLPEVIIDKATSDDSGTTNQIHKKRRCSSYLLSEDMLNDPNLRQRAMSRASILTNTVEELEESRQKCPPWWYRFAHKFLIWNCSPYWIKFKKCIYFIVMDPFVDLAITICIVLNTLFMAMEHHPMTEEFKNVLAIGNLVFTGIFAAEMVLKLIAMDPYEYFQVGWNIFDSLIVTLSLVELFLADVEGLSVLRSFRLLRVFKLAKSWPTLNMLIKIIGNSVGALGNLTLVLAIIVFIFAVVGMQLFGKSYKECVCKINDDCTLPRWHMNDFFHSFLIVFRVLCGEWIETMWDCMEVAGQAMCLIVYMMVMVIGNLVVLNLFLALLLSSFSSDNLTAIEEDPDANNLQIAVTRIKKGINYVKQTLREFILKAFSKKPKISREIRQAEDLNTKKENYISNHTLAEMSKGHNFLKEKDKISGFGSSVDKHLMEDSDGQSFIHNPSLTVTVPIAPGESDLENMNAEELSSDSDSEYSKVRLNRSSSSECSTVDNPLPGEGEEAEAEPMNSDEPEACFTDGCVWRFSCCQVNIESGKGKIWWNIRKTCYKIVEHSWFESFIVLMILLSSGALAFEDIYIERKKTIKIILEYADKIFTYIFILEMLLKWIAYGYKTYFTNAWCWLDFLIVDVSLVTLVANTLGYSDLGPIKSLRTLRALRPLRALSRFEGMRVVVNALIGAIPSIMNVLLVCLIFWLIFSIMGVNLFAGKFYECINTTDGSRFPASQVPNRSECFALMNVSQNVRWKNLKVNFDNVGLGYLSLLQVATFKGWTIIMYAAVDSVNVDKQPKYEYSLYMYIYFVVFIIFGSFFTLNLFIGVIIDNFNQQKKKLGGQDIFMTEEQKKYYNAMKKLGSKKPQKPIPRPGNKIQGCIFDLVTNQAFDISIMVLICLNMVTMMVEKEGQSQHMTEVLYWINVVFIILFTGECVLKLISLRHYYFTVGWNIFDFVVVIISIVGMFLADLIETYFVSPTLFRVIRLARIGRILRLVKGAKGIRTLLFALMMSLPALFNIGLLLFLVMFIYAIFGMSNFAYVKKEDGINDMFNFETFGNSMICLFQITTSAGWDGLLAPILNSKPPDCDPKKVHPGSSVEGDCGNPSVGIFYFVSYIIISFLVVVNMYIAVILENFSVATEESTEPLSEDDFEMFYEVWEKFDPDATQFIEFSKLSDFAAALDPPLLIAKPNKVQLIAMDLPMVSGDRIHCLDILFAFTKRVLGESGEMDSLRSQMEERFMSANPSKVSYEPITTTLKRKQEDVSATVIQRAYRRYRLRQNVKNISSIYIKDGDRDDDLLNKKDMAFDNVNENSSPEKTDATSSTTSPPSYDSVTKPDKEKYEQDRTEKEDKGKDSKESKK
hNav1.7, sequence (Q07699 19-218 partner): as the sequence (Q07699 19-218 partner) above

IC50 [nM]	Molecule
20.2	CS(=O)(=O)NC(=O)c1cc(C2CC2)c(CN2CCN(S(=O)(=O)c3cc(Cl)cc(Cl)c3)CC2)cc1F [Example 526, 5-cyclopropyl-4-((4-((3,5-dichlorophenyl)sulfonyl)piperazin-1-yl)methyl)-2-fluoro-N-(methylsulfonyl)benzamide, trifluoroacetic acid salt]

Same assay, conditions: read-out: Ligand Binding Assay; competition with 100 pM [3H]compound, membranes with hNav1.7 and β1 subunit, room temperature, 18 h

Molecule	IC50 [nM]
C[C@@H](c1cc(Cl)cc(Cl)c1)N1CCC[C@@H](Oc2cc(F)c(C(=O)NS(C)(=O)=O)cc2C2CC2)C1 [Example 50]	1.9
C[C@H](c1cc(Cl)cc(Cl)c1)N1CCC[C@H](COc2cc(F)c(C(=O)NS(C)(=O)=O)cc2C2CC2)C1 (single isomer, unassigned) [Example 337, trifluoroacetic acid salt]	11.1
(R)-5-cyclopropyl-4-((1-(3,5-dichlorobenzyl)-2-oxopiperidin-4-yl)methoxy)-2-fluoro-N-(methylsulfonyl)benzamide [Example 234]	170
(S)-5-cyclopropyl-4-((1-(1-(3,5-dichlorophenyl)ethyl)-4-fluoropiperidin-4-yl)methoxy)-2-fluoro-N-(methylsulfonyl)benzamide, trifluoroacetic acid salt [Example 349]	4
C[C@@H](c1cc(Cl)cc(Cl)c1)N1CCC[C@H](COc2cc(F)c(C(=O)NS(C)(=O)=O)cc2C2CC2)C1 (single isomer, unassigned) [Example 338, trifluoroacetic acid salt]	7.4
CS(=O)(=O)NC(=O)c1cc(C2CC2)c(OCC2CCN(Cc3cccc(Cl)c3)CC2)cc1F [Example 92, 4-((1-(3-Chlorobenzyl)piperidin-4-yl)methoxy)-5-cyclopropyl-2-fluoro-N-(methylsulfonyl)benzamide]	30.5
O=C(NS(=O)(=O)C1CC1)c1cc(Cl)c(O[C@@H]2CCCN(Cc3ccc(F)cc3Cl)C2)cc1F [Example 39, (R)-5-chloro-4-((1-(2-chloro-4-fluorobenzyl)piperidin-3-yl)oxy)-N-(cyclopropylsulfonyl)-2-fluorobenzamide, trifluoroacetic acid salt]	6.8

Next, values leading:

IC50 [nM]	Molecule
14.2	O=C(NS(=O)(=O)C1CC1)c1cc(C2CC2)c(CN2CCC(Oc3ccc(C(F)(F)F)cn3)CC2)cc1F [Example 477, 5-cyclopropyl-N-(cyclopropylsulfonyl)-2-fluoro-4-((4-((5-(trifluoromethyl)pyridin-2-yl)oxy)piperidin-1-yl)methyl)benzamide, trifluoroacetic acid salt]
4.5	(S)-5-cyclopropyl-N-(cyclopropylsulfonyl)-4-((1-(1-(3,5-dichlorophenyl)ethyl)-4-fluoropiperidin-4-yl)methoxy)-2-fluorobenzamide [Example 350]
5	C[C@@H](c1cc(Cl)cc(Cl)c1)N1CCC(COc2cc(F)c(C(=O)NS(=O)(=O)C3CC3)cc2C2CC2)CC1 (single isomer, unassigned) [Example 270]
2060	CS(=O)(=O)NC(=O)c1cc(C2CC2)c(OCC2CCN(S(=O)(=O)C3COC3)CC2)cc1F [Example 392, 5-cyclopropyl-2-fluoro-N-(methylsulfonyl)-4-((1-(oxetan-3-ylsulfonyl)piperidin-4-yl)methoxy)benzamide]
5.7	C[C@@H]1CC[C@@H](COc2cc(F)c(C(=O)NS(C)(=O)=O)cc2C2CC2)CN1[C@@H](C)c1cc(Cl)cc(Cl)c1 (single isomer, unassigned) [Example 342, trifluoroacetic acid salt]
